Results taken from patent US10724055B2, “Methods for sustaining the viability of microorganisms during a cessation of syngas flow and processes for storage and reactivation of microorganisms” (Synata Bio, Inc., priority 2015, dated 2020).

Key:
Assay in all cases: Sustaining microorganisms with formate moiety during cessation of syngas feed, recovery on syngas resumption
Type in all cases: cell-based
[1] = system: Clostridium autoethanogenum
Method: (§1) A stirred, 10 liter, continuous fermenter is used under anaerobic bioconversion conditions with a feed gas comprising about 63.3 volume percent hydrogen; 20.5 volume percent carbon monoxide; 6.8 volume percent carbon dioxide; 8.2 volume percent methane and 1.2 volume percent nitrogen. During steady state operation, the gas feed is supplied at about 280 to 290 […] (measured at atmospheric pressure and 25° C.) and a media feed is provided at about 200 milliliters per hour. The media feed is an aqueous solution containing:
(§2) An aqueous solution of about 60 millimoles of sodium metabisulfite is separately added at a rate of 0.6 milliliters per hour. The fermenter is maintained at about 37° C. at a pH of about 5.0. The stirring rate is approximately 600 revolutions per minute.
In each example, the fermentation, using the microorganism specified in Table 1, is operated to achieve stable, steady-state conditions. The flow of syngas is then stopped. […] After a predetermined period, the addition of formate moiety is stopped, the nitrogen sweep gas is stopped and the syngas is resumed at a rate that matches the uptake capacity of the microbial population. The stirring is increased to about 600 rpm, and the flow rates of the media feed and metabisulfite feed are resumed to the levels existing prior to the cessation of the syngas feed.

Clostridium coskatii = details: no media or sulfur feed
Method: as §1, §2
(§3) In each example, the fermentation, using the microorganism specified in Table 1, is operated to achieve stable, steady-state conditions. The flow of syngas is then stopped. At the time of stoppage of syngas feed, the fermenter is operated in batch mode (no aqueous stream draw from the fermenter), nitrogen gas at about 15 milliliters per minute (atmospheric pressure and 25° C.) is fed to sweep the head space of the fermenter, and the stirring rate is reduced to about 100 rpm. After a predetermined period, the addition of formate moiety is stopped, the nitrogen sweep gas is stopped and the syngas is resumed at a rate that matches the uptake capacity of the microbial population. The stirring is increased to about 600 rpm, and the flow rates of the media feed and metabisulfite feed are resumed to the levels existing prior to the cessation of the syngas feed.

[2] = system: Clostridium autoethanogenum; details: Example 2; formate feed 3.5 mole % of electrons; outage 6 hrs; media feed 10%; Na2S 20 mg/hr; argon sweep gas
Clostridium radsdalei = details: Example 3; formate feed 5 mole % of electrons; outage 12 hrs; no media or sulfur feed
Method: as §1, §2, §3

[3] = Example 9, formate feed 10 mole % of electrons, outage 6 hrs, no media or sulfur feed
[4] = Example 10, formate feed 10 mole % of electrons, outage 24 hrs, no media or sulfur feed
[5] = Example 4, formate feed 3.5 mole % of electrons, outage 6 hrs
[6] = Example 5, formate feed 3.5 mole % of electrons, outage 24 hrs
[7] = Example 6, formate feed 15 mole % of electrons, outage 24 hrs
[8] = Example 1, formate feed 3.5 mole % of electrons prior to outage, syngas outage 6 hrs, media feed 10%, Na2S 20 mg/hr, nitrogen sweep
[9] = Example 8, formate feed 3.5 mole % of electrons, outage 6 hrs, no media or sulfur feed

O=CO [Formic acid]
Yes: CO uptake recovery [1, 3] | H2 uptake recovery [1, 3] | CO uptake recovery [1, 4] | H2 uptake recovery [1, 4]

N.O=CO [NH4^+ salt]
Yes: CO uptake recovery (Clostridium coskatii; [5]) | H2 uptake recovery (Clostridium coskatii; [5]) | CO uptake recovery (Clostridium coskatii; [6]) | H2 uptake recovery (Clostridium coskatii; [6]) | CO uptake recovery (Clostridium coskatii; [7]) | H2 uptake recovery (Clostridium coskatii; [7])

O=C[O-].[Na+] [Sodium salt]
Yes: CO uptake recovery [2] | CO uptake recovery (Clostridium radsdalei) | H2 uptake recovery (Clostridium radsdalei) | CO uptake recovery [1, 8] | H2 uptake recovery [1, 8] | H2 uptake recovery ([1]; Example 2, formate feed 3.5 mole % of electrons, outage 6 hrs, media feed 10%, Na2S 20 mg/hr, argon sweep gas) | CO uptake recovery [1, 9] | H2 uptake recovery [1, 9]
